pIC50: −log10 of the molar value.
Each molecule was assayed on r(CUG)12-MBNL1 complex (assay: Inhibition of the r(CUG)12-MBNL1 complex measured by TR-FRET). Settings: Table L; 80 nM RNA, 60 nM MBNL1-His6.
Assay type: biochemical

Row | pIC50 | Compound
1 | 4.91 | CNCCNC(=O)c1ccc2nc(-c3ccc(-c4nc5ccc(C(=O)NCCN(C)C)cc5[nH]4)cc3)[nH]c2c1 [Compound 27, N-(2-(dimethylamino)ethyl)-2-(4-(6-((2-(methylamino)ethyl)carbamoyl)-1H-benzo[d]imidazol-2-yl)phenyl)-1H-benzo[d]imidazole-6-carboxamide]
2 | 4.91 | CNCCNC(=O)c1ccc2nc(-c3ccc(-c4nc5ccc(C(=O)NCCNC)cc5[nH]4)cc3)[nH]c2c1 [Compound 28, 2,2′-(1,4-phenylene)bis(N-(2-(methylamino)ethyl)-1H-benzo[d]imidazole-6-carboxamide)]
3 | 5.02 | CN(C)CCNC(=O)c1ccc2nc(-c3ccc(-c4nc5ccc(C(=O)NCCN)cc5[nH]4)cc3)[nH]c2c1 [Compound 29, N-(2-aminoethyl)-2-(4-(6-((2-(dimethylamino)ethyl)carbamoyl)-1H-benzo[d]imidazol-2-yl)phenyl)-1H-benzo[d]imidazole-6-carboxamide]
4 | 4.74 | NCCNC(=O)c1ccc2nc(-c3ccc(-c4nc5ccc(C(=O)NCCN)cc5[nH]4)cc3)[nH]c2c1 [Compound 30, 2,2′-(1,4-phenylene)bis(N-(2-aminoethyl)-1H-benzo[d]imidazole-6-carboxamide)]
5 | 5.21 | CN(C)CCCNC(=O)c1ccc2nc(-c3ccc(-c4nc5ccc(C(=O)NCCN(C)C)cc5[nH]4)cc3)[nH]c2c1 [Compound 35, N-(2-(dimethylamino)ethyl)-2-(4-(6-((3-(dimethylamino)propyl)carbamoyl)-1H-benzo[d]imidazol-2-yl)phenyl)-1H-benzo[d]imidazole-6-carboxamide]
6 | 5.11 | CN(C)CCCNC(=O)c1ccc2nc(-c3ccc(-c4nc5ccc(C(=O)NCCCN(C)C)cc5[nH]4)cc3)[nH]c2c1 [Compound 36, 2,2′-(1,4-phenylene)bis(N-(3-(dimethylamino)propyl)-1H-benzo[d]imidazole-6-carboxamide)]
7 | 5.11 | CN(C)CCNC(=O)c1ccc2nc(-c3ccc(-c4nc5ccc(C(=O)NCCN(C)CCN)cc5[nH]4)cc3)[nH]c2c1 [Compound 37, N-(2-((2-aminoethyl)(methyl)amino)ethyl)-2-(4-(6-((2-(dimethylamino)ethyl)carbamoyl)-1H-benzo[d]imidazol-2-yl)phenyl)-1H-benzo[d]imidazole-6-carboxamide]
8 | 4.66 | CN(C)CCNC(=O)c1ccc2nc(-c3ccc(-c4nc5ccc(C(=O)NCCNC(=O)OC(C)(C)C)cc5[nH]4)cc3)[nH]c2c1 [Compound 49, tert-butyl (2-(2-(4-(6-((2-(dimethylamino)ethyl)carbamoyl)-1H-benzo[d]imidazol-2-yl)phenyl)-1H-benzo[d]imidazole-6-carboxamido)ethyl)carbamate]
9 | < 3.70 | CCCNC(=O)c1ccc2nc(-c3ccc(-c4nc5ccc(C(=O)NCCC)cc5[nH]4)cc3)[nH]c2c1 [Compound 52, 2,2′-(1,4-phenylene)bis(N-propyl-1H-benzo[d]imidazole-6-carboxamide)]
10 | < 3.70 | COCCNC(=O)c1ccc2nc(-c3ccc(-c4nc5ccc(C(=O)NCCOC)cc5[nH]4)cc3)[nH]c2c1 [Compound 53, 2,2′-(1,4-phenylene)bis(N-(2-methoxyethyl)-1H-benzo[d]imidazole-6-carboxamide)]
11 | 5.30 | CN(C)CCCOC(=O)c1ccc2nc(-c3ccc(-c4nc5ccc(C(=O)OCCCN(C)C)cc5[nH]4)cc3)[nH]c2c1 [Compound 56]
12 | 4.28 | COC(=O)CCC(=O)NCCN(C)CCNC(=O)c1ccc2nc(-c3ccc(-c4nc5ccc(C(=O)NCCN(C)C)cc5[nH]4)cc3)[nH]c2c1 [Compound 72]
13 | 5.02 | C#CCCCCN(C)CCNC(=O)c1ccc2nc(-c3ccc(-c4nc5ccc(C(=O)NCCN(C)C)cc5[nH]4)cc3)[nH]c2c1 [Compound 73]
14 | < 3.70 | CN(C)CCNC(=O)c1ccc2nc(-c3ccc(-c4nc5ccc(C(=O)NCCN(C)C)cc5[nH]4)c(Br)c3)[nH]c2c1 [Compound 78]

Continued, molecule first:

Row | Compound | pIC50
15 | N=C(N)c1ccc2nc(-c3ccc(-c4nc5ccc(C(=N)N)cc5[nH]4)cc3)[nH]c2c1 [Compound 26, 2,2′-(1,4-phenylene)bis(1H-benzo[d]imidazole-6-carboximidamide) acetate] | 5.18
16 | C[N+](C)(C)CCNC(=O)c1ccc2nc(-c3ccc(-c4nc5ccc(C(=O)NCC[N+](C)(C)C)cc5[nH]4)cc3)[nH]c2c1 [Compound 31, 2,2′-((2,2′-(1,4-phenylene)bis(1H-benzo[d]imidazole-6,6′-carbonyl))bis(azanediyl))bis(N,N,N-trimethylethanaminium) chloride] | 4.81
17 | COC(=O)[C@H](CCCNC(=N)N)NC(=O)c1ccc2nc(-c3ccc(-c4nc5ccc(C(=O)N[C@@H](CCCNC(=N)N)C(=O)OC)cc5[nH]4)cc3)[nH]c2c1 [Compound 39] | 5.36
18 | O=C(NCCN1CCCC1)c1ccc2nc(-c3ccc(-c4nc5ccc(C(=O)NCCN6CCCC6)cc5[nH]4)cc3)[nH]c2c1 [Compound 40, 2,2′-(1,4-phenylene)bis(N-(2-(pyrrolidin-1-yl)ethyl)-1H-benzo[d]imidazole-6-carboxamide)] | 5.15
19 | O=C(NCCN1CCOCC1)c1ccc2nc(-c3ccc(-c4nc5ccc(C(=O)NCCN6CCOCC6)cc5[nH]4)cc3)[nH]c2c1 [Compound 42, 2,2′-(1,4-phenylene)bis(N-(2-morpholinoethyl)-1H-benzo[d]imidazole-6-carboxamide)] | < 3.70
20 | O=C(O)c1ccc2nc(-c3ccc(-c4nc5ccc(C(=O)NCCN6CCCCC6)cc5[nH]4)cc3)[nH]c2c1 [Compound 43, 2-(4-(6-((2-(piperidin-1-yl)ethyl)carbamoyl)-1H-benzo[d]imidazol-2-yl)phenyl)-1H-benzo[d]imidazole-6-carboxylic Acid] | < 3.70
21 | CN1CCN(CCNC(=O)c2ccc3nc(-c4ccc(-c5nc6ccc(C(=O)NCCN7CCN(C)CC7)cc6[nH]5)cc4)[nH]c3c2)CC1 [Compound 45, 2,2′-(1,4-phenylene)bis(N-(2-(4-methylpiperazin-1-yl)ethyl)-1H-benzo[d]imidazole-6-carboxamide)] | 4.74
22 | CC(C)(C)OC(=O)N1CCN(CCNC(=O)c2ccc3nc(-c4ccc(-c5nc6ccc(C(=O)NCCN7CCN(C(=O)OC(C)(C)C)CC7)cc6[nH]5)cc4)[nH]c3c2)CC1 [Compound 46, di-tert-butyl 4,4′-(((2,2′-(1,4-phenylene)bis(1H-benzo[d]imidazole-6,6′-carbonyl))bis(azanediyl))bis(ethane-2,1-diyl))bis(piperazine-1-carboxylate)] | < 3.70
23 | O=C(NCCCN1CCCCC1)c1ccc2nc(-c3ccc(-c4nc5ccc(C(=O)NCCCN6CCCCC6)cc5[nH]4)cc3)[nH]c2c1 [Compound 48, 2,2′-(1,4-phenylene)bis(N-(3-(piperidin-1-yl)propyl)-1H-benzo[d]imidazole-6-carboxamide)] | 4.99
24 | CC(C)(C)OC(=O)NCCNC(=O)c1ccc2nc(-c3ccc(-c4nc5ccc(C(=O)NCCNC(=O)OC(C)(C)C)cc5[nH]4)cc3)[nH]c2c1 [Compound 50, di-tert-butyl(((2,2′-(1,4-phenylene)bis(1H-benzo[d]imidazole-6,6′-carbonyl))bis(azanediyl))bis(ethane-2,1-diyl))dicarbamate] | < 3.70
25 | CC(=O)NCCNC(=O)c1ccc2nc(-c3ccc(-c4nc5ccc(C(=O)NCCNC(C)=O)cc5[nH]4)cc3)[nH]c2c1 [Compound 51, 2,2′-(1,4-phenylene)bis(N-(2-acetamidoethyl)-1H-benzo[d]imidazole-6-carboxamide)] | < 3.70
26 | CN(C)CCOC(=O)c1ccc2nc(-c3ccc(-c4nc5ccc(C(=O)OCCN(C)C)cc5[nH]4)cc3)[nH]c2c1 [Compound 54, bis(2-(dimethylamino)ethyl) 2,2′-(1,4-phenylene)bis(1H-benzo[d]imidazole-6-carboxylate)] | 5.44
27 | CN(C)CCOc1ccc2nc(-c3ccc(-c4nc5ccc(OCCN(C)C)cc5[nH]4)cc3)[nH]c2c1 [Compound 57, 2,2′-((2,2′-(1,4-phenylene)bis(1H-benzo[d]imidazole-6,2-diyl))bis(oxy))bis(N,N-dimethylethanamine)] | 3.92
28 | CN(C)CCNCc1ccc2nc(-c3ccc(-c4nc5ccc(CNCCN(C)C)cc5[nH]4)cc3)[nH]c2c1 [Compound 61] | < 3.70
29 | CON(C)Cc1ccc2nc(-c3ccc(-c4nc5ccc(CNCCN(C)C)cc5[nH]4)cc3)[nH]c2c1 [Compound 62] | < 3.70
30 | CN(C)CC(=O)Nc1ccc2nc(-c3ccc(-c4nc5ccc(NC(=O)CN(C)C)cc5[nH]4)cc3)[nH]c2c1 [Compound 63] | 4.97
31 | CN(C)CCNC(=O)Nc1ccc2nc(-c3ccc(-c4nc5ccc(NC(=O)NCCN(C)C)cc5[nH]4)cc3)[nH]c2c1 [Compound 64] | 4.57
32 | CN(C)NC(=O)Nc1ccc2nc(-c3ccc(-c4nc5ccc(NC(=O)NN(C)C)cc5[nH]4)cc3)[nH]c2c1 [Compound 66, N,N′-(2,2′-(1,4-phenylene)bis(1H-benzo[d]imidazole-6,2-diyl))bis(2,2-dimethylhydrazinecarboxamide)] | < 3.70
33 | CN(C)NC(=O)c1ccc2nc(-c3ccc(-c4nc5ccc(C(=O)NN(C)C)cc5[nH]4)cc3)[nH]c2c1 [Compound 67] | < 3.70
34 | CN(C)CCN(C)C(=O)c1ccc2nc(-c3ccc(-c4nc5ccc(C(=O)N(C)CCN(C)C)cc5[nH]4)cc3)[nH]c2c1 [Compound 68] | < 3.70
35 | CN(C)CCNC(=O)c1ccc2nc(-c3ccc(-c4nc5ccc(C(=O)NCCN(C)CCCCc6cn(CCCN)nn6)cc5[nH]4)cc3)[nH]c2c1 [Compound 74] | 5.17
36 | c1cc2nc(-c3ccc(-c4nc5ccc(NC6=NCCN6C6=NCCN6)cc5[nH]4)cc3)[nH]c2cc1NC1=NCCN1 [Compound 76] | 4.84
37 | O=[N+]([O-])c1ccc2nc(-c3ccc(-c4ccc(-c5nc6ccc([N+](=O)[O-])cc6[nH]5)cc4)cc3)[nH]c2c1 [Compound 79] | 4.36
38 | Nc1ccc2nc(-c3ccc(-c4ccc(-c5nc6ccc(N)cc6[nH]5)cc4)cc3)[nH]c2c1 [Compound 80] | 4.50
39 | N=C(N)Nc1ccc2nc(-c3ccc(-c4ccc(-c5nc6ccc(NC(=N)N)cc6[nH]5)cc4)cc3)[nH]c2c1 [Compound 81] | 5.21
40 | Cn1c(-c2ccc(-c3nc4ccccc4n3C)cc2)nc2ccccc21 [Compound 82] | < 3.70
41 | Cn1c(-c2ccc(-c3nc4cc(N)ccc4n3C)cc2)nc2cc(N)ccc21 [Compound 83, 2,2′-(1,4-phenylene)bis(1-methyl-1H-benzo[d]imidazol-5-amine)] | < 3.70
